Patent US20220218714A1, “METHOD OF TREATING CANCER” (Epizyme, Inc., priority 2013, published 2022)

Tests used:
[1] = tested on: PDX of synovial sarcoma tumors; experiment: Tumor volume in patient-derived xenografts (PDX) of synovial sarcoma, 35 days dosing; format: in vivo, athymic nude mice; settings: two synovial sarcoma PDX; oral 125, 250 or 500/400 mg/kg for 35 days
Description: FIGS. 11A and 11C show mean in vivo tumor volumes for athymic nude mice bearing one of two different PDX of synovial sarcoma tumors. FIGS. 11B and 11D show percent survival for mice bearing a PDX. Mice were dosed with either vehicle (oral for 35 days), Compound A (oral: 125 mg/kg, 250 mg/kg, or 500/400 mg/kg for 35 days) or Doxorubicin (iv: 3 mg/kg, once a week for 3 weeks). FIGS. 11A and 11B show data from mice bearing PDX from high-grade spindle cell sarcoma. FIGS. 11C and 11D show data from mice bearing PDX.

[2] = tested on: H3K27me3 in HS-SY-II xenograft; experiment: PD alterations in HS-SY-II xenograft model (tumor H3K27me3 ELISA, 7 days); format: in vivo, mice; settings: for Mean 2 (H3K27me3 level in tumor, fold change to vehicle): vehicle mean = 1; for Mean Diff. (vehicle vs. treated, tumor H3K27me3): Dunnett's multiple comparisons test; for Significant? (vehicle vs. treated, tumor H3K27me3): Dunnett's test, alpha 0.05
Description: HS-SY-II cells were harvested during mid-log phase growth, and resuspended in Hank balanced salt solution with 50% Matrigel (BD Biosciences). Balb/C-nu mice (Charles River Laboratories Japan) received 1×10^7 cells (0.1 mL cell suspension) subcutaneously in the right flank. Mice carrying tumors of approximately 200 mm^3 (31 days after injection) were sorted into treatment groups with similar mean tumor volumes. Compound A or vehicle (0.5% MC+0.1% Tween-80 in water) was administered at the indicated doses on twice a day for 7 days by oral gavage. Each dose was delivered in a volume of 0.2 mL/20 g mouse (10 mL/kg), and adjusted for the last recorded weight of individual animals. Peripheral blood samples were collected at approximately 5 minutes before and 3 hours after the last dose from Compound A-treated mice. After obtaining plasma samples by centrifugation, the analysis for plasma concentrations of Compound A was conducted by the liquid chromatography-tandem mass spectrometry (LC/MS/MS) method. The UPLC system (Acquity, Waters) equipped with a mass spectrometer (Quattro premier, MICROMASS) was used for quantification of Compound A. The concentrations are plotted (n=5) in FIG. 7A. Each bar represents a mean of plasma concentration in each group.
For FIG. 10D, tumors were snap-frozen in liquid nitrogen. Frozen tumor samples were cut into a 20 mg pieces and placed in 500 μL of ice cold nuclear extraction buffer (10 mM Tris-HCl, 10 mM MgCl2, 25 mM KCl, 1% Triton X-100, 8.6% Sucrose, plus lx Halt Protease inhibitor cocktail (1861281, Thermo Scientific)) and homogenized with a handy micro homogenizer. Nuclei were collected by centrifugation at 600 g for 5 minutes at 4° C. and washed once with ice cold PBS. Supernatant was removed and histones extracted for one hour with 100 μL, of 0.4 N cold sulfuric acid. Extracts were clarified by centrifugation at 10,000 g for 10 minutes at 4° C. and transferred to a fresh microcentrifuge tube containing 1 mL of ice cold acetone. Histones were precipitated at -20° C. for overnight, pelleted by centrifugation at 10,000 g for 10 minutes and resuspended in 100 p1 of water. Histones were quantified using the BCA protein assay (23225, Pierce). The diluted histones were coated on Immulon 4HBX plates (3855, Thermo Scientific) overnight and ELISA was performed. Briefly, after blocking with PBS containing 0.05% Tween 20 and 2% bovine serum albumin (BSA), the plates were incubated with H3K27me3 antibody (#9733, Cell Signaling Technology) or total histone H3 antibody (AB1791, Abcam). The plates were further incubated with horseradish peroxidase conjugated anti-rabbit IgG (#7074, Cell Signaling Technology), followed by incubated with TMB substrate (TMBS-0100-01, BioFx Laboratories). Subsequently, the developed colors in the wells were measured using a plate spectrophotometer (SpectraMax 250, Molecular Devices) at 450 nm (reference wavelength 650 nm). The H3K27me3 levels were adjusted to total histone H3, and expressed as fold changes to vehicle control. The values are plotted (n=6) in FIG. 10D. Each bar represents a mean of the values in each group. […] Histones were extracted and quantified, and the levels of H3K27me3 were analyzed as described above. Trimethylation levels of H3K27 in the tumor are plotted (n=5) in FIG. 7B. Each bar represents a mean ±SEM of the trimethylation level in each group.

[3] = tested on: H3K27me3 in HS-SY-II xenograft; experiment: H3K27me3 ELISA of HS-SY-II xenograft tumors harvested on Day 28; format: in vivo, athymic nude mice; settings: Day 28, 3 h after the last dose; second study
Description: FIGS. 10A to 10C show mean in vivo tumor volumes for athymic nude mice bearing HS-SY-II xenografts. In a first study, mice were dosed with either vehicle (oral for 28 days or iv on Day 1 and Day 22), Compound A (oral: 125 mg/kg, 250 mg/kg, or 500 mg/kg for 28 days), or Doxorubicin (iv: 10 mg/kg, Day 1 and Day 22); tumor volumes were measured twice a week (FIGS. 10A and 10B). In a second study, mice were dosed with either vehicle (oral for 28 days), Compound A (oral: 250 mg/kg or 500 mg/kg for 28 days), Doxorubicin (iv: 10 mg/kg on Day 1 and Day 22), or a combination of Doxorubicin (iv: 10 mg/kg on Day 1 and Day 22) and Compound A (oral: 250 mg/kg for 28 days) (FIG. 10C). Tumors from animals of the second study were harvested on Day 28 (3 h after the last dose) and subjected to H3K27me3 analysis by ELISA (FIG. 10D) or IHC for the proliferation marker Ki67 (FIG. 10E).
For FIG. 10D, tumors were snap-frozen in liquid nitrogen. […] Histones were quantified using the BCA protein assay (23225, Pierce). […] Subsequently, the developed colors in the wells were measured using a plate spectrophotometer (SpectraMax 250, Molecular Devices) at 450 nm (reference wavelength 650 nm). The H3K27me3 levels were adjusted to total histone H3, and expressed as fold changes to vehicle control. […] Histones were extracted and quantified, and the levels of H3K27me3 were analyzed as described above. […]

[4] = tumor H3K27me3 across dose groups (FIG. 7B)

CCN(c1cc(-c2ccc(CN3CCOCC3)cc2)cc(C(=O)NCc2c(C)cc(C)[nH]c2=O)c1C)C1CCOCC1 [Compound A]
tumor volume [1]: dose-related tumor volume decrease | Mean 2 (H3K27me3 level in tumor, fold change to vehicle) ([2]; 125 mg/kg oral twice daily 7 days): 0.7 | Mean Diff. (vehicle vs. treated, tumor H3K27me3) ([2]; 125 mg/kg): 0.3 | Significant? (vehicle vs. treated, tumor H3K27me3) ([2]; 125 mg/kg): Yes | Mean 2 (H3K27me3 level in tumor, fold change to vehicle) ([2]; 250 mg/kg oral twice daily 7 days): 0.55 | Mean Diff. (vehicle vs. treated, tumor H3K27me3) ([2]; 250 mg/kg): 0.45 | Significant? (vehicle vs. treated, tumor H3K27me3) ([2]; 250 mg/kg): Yes | Mean 2 (H3K27me3 level in tumor, fold change to vehicle) ([2]; 500 mg/kg oral twice daily 7 days): 0.304 | Mean Diff. (vehicle vs. treated, tumor H3K27me3) ([2]; 500 mg/kg, listed as E7435): 0.696 | Mean Diff. (vehicle vs. treated, tumor H3K27me3) ([2]; 500 mg/kg, listed as E7438): 0.896 | Significant? (vehicle vs. treated, tumor H3K27me3) ([2]; 500 mg/kg): Yes | H3K27me3 levels in tumor tissues ([2]; oral twice daily for 7 days): dose dependent decrease | Is linear trend significant (P <0.05)? [2, 4]: Yes | Post test for linear trend: R squared [2, 4]: 0.9104 | Post test for linear trend: Slope [2, 4]: −0.1119 | H3K27me3 levels in tumors (fold change to vehicle control) [3]: significantly reduced
